PubChem BioAssay (NCI)
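Cells were grown in 96-well plates and exposed to each compound for 48 hours at five concentrations; endpoints were interpolated linearly between bracketing concentrations, or set to the highest concentration if not reached. At the GI50, growth is halved. TGI marks complete inhibition of growth.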

Assays:
Assay in all cases: DTP human tumour cell line panel, 48 h
[1] = test system: OVCAR-3 ovarian
[2] = test system: SF-268 CNS
[3] = test system: HCT-116 colon
[4] = test system: U251 CNS
[5] = test system: HCC-2998 colon
[6] = test system: SF-539 CNS
[7] = test system: SF-295 CNS
[8] = test system: SW-620 colon
[9] = test system: SNB-19 CNS
[10] = test system: T-47D breast
[11] = test system: A498 renal
[12] = test system: MCF7 breast

SMILES	TGI [1] [µM]	TGI [2] [µM]	TGI [3] [µM]	TGI [4] [µM]	TGI [5] [µM]	TGI [6] [µM]	TGI [7] [µM]	TGI [8] [µM]	TGI [9] [µM]	TGI [10] [µM]	TGI [11] [µM]	TGI [12] [µM]	GI50 [2] [µM]	GI50 [5] [µM]	GI50 [7] [µM]	GI50 [8] [µM]	GI50 [9] [µM]	GI50 [11] [µM]	GI50 [12] [µM]
COc1ccc(/[N+]([O-])=C/c2ccc(OC(=S)S)c(OC)c2)cc1	> 100	> 100	> 100	> 100	> 100	> 100	> 100	> 100	> 100	99.5	> 100	> 100							
COC(=O)[C@H](Cc1ccccc1)NC(=O)c1ccc(CNC(=O)/C=C/c2ccc(OCc3ccccc3)cc2)cc1	28.2	28.1	> 100	> 75.4	> 100	51.9	35.7	> 100	36.8	72.2	21.4	> 100							
ClCc1nc2ccccc2[nH]1	> 100	> 100	> 100	> 100	> 100	> 100	> 100	> 100	> 100	> 100	> 100	> 100							
O=S(=O)(O)c1ccc(N=Nc2ccccc2)cc1	> 100	> 100	> 100	> 100	> 100	> 100	> 100	> 100	> 100	> 100	> 100	> 100							
CCn1c(SCC(=O)N/N=C2\SCC(=O)N2c2ccc(C)cc2)nc2ccccc2c1=O	62.9	47.7	35.9	46.1	> 100	33.5	36.2	> 100	43.6	54.9	38.4	45.9							
FC1(F)ON2CCc3ccccc3C2[C@H]1c1ccccc1 (some centres undefined)	> 100	> 100	> 100	> 100	> 100	> 100	> 100	> 100	> 100	> 100	> 100	> 100	> 100	> 100	> 100	> 100	> 100	> 100	> 100
COC(=O)CCc1ccc(CCC(=O)OC)cc1	> 100	> 100	> 100	> 100	> 100	> 100	> 100	> 100	> 100	> 100	> 100	> 100							
NS(=O)(=O)c1ccc(NC(=O)N/N=C/c2ccccc2[N+](=O)[O-])cc1	> 100	> 100	> 100	> 100	> 100	> 100	> 100	> 100	> 100	> 100	> 100	> 100							
O=c1[nH]c(NCc2cccnc2)nc2nc[nH]c12	> 100	> 100	> 100	> 100	> 100	> 100	> 100	> 100	> 100	> 100	> 100	> 100							
COC(=O)C(CNC(=O)/C=C/c1ccc(OC)c(OC)c1)NC(=O)/C=C/c1ccc(OC)c(OC)c1 (centres undefined)	> 100	> 100	> 100	> 100	> 100	> 100	> 100	> 100	> 100	> 100	> 100	> 100							
CC(NC1=NCCO1)c1ccccc1Cl (centres undefined)	> 100	> 100	> 100	> 100	> 100	> 100	> 100	> 100	> 100	> 100	> 100	> 100							
COC(=O)c1cc2c(c(C(=O)OC)c1)CCC2	> 100	> 100	> 100	> 100	> 100	> 100	> 100	> 100	> 100	> 100	> 100	> 100							
CCCCSC1=N/C(=C\c2ccccc2O)C(=O)N1	> 100	> 100	> 100	> 100	> 100	> 100	> 100	> 100	> 100	> 100	> 100	> 100							
C#C[C@]1(O)CC[C@H]2[C@@H]3CCC4=C/C(=N\OCCN5CCCCC5)CC[C@]4(C)[C@H]3CC[C@@]21C	16.4	21.7	22.2	33.6	35.2	15.5	10.6	29.9	19.1	19.3	20.5	15.6							
S=C(NCc1ccccc1)Nc1sc(=NCc2ccccc2)nc2sc3c(c12)CCN(N1CCc2c(sc4nc(=NCc5ccccc5)sc(NC(=S)NCc5ccccc5)c24)C1)C3	> 100	> 100	> 54.2	> 47.5	> 62	> 45.9	> 100	> 72.5	> 64.2	> 61.3	> 67.6	> 62.2							
COc1ccc(S(=O)(=O)Nc2ccc(-c3csc(N4C(=O)/C(=C/c5ccccc5[N+](=O)[O-])N=C4c4ccccc4)n3)cc2)cc1Cl	> 100	> 100	> 100	> 100	63.5	> 100	> 100	> 100	> 100	75.2	59.8	> 100							
